{
  "source": "patent US20260272936A1",
  "about": "“TREATMENT OF CANCER WITH A PARG INHIBITOR” (858 Therapeutics, Inc., priority 2023, published 2026)",
  "tested_on": "OVCAR3 cells",
  "assay": "6-day growth assay, Compound 1 in combination with camonsertib",
  "format": "cell-based",
  "settings": "Homo sapiens, OVCAR-3, 144 h, read-out: Compound 1 IC50, 6-Day Nuclei Count",
  "note": "Where two headings read alike, the source gives them in different places.",
  "data": [
    {"smiles": "[2H]C([2H])(c1cnn(C)c1)N1C(=O)c2cc(S(=O)(=O)NC3(C)CC3)ccc2N2C1=NC[C@H]2C", "note": "[Compound 1, (R)-1-methyl-4-((1-methyl-1H-pyrazol-4-yl)methyl-d2)-N-(1-methylcyclopropyl)-5-oxo-1,2,4,5-tetrahydroimidazo[1,2-a]quinazoline-7-sulfonamide]", "values": [
      {"measurement": "IC50", "setting": "camonsertib 0.032 nM", "value": 39, "unit": "µM"},
      {"measurement": "IC50", "setting": "camonsertib 0.32 nM", "value": 44, "unit": "µM"},
      {"measurement": "IC50", "setting": "camonsertib 3.2 nM", "value": 29, "unit": "µM"},
      {"measurement": "IC50", "setting": "camonsertib 10 nM", "value": 12, "unit": "µM"},
      {"measurement": "IC50", "setting": "camonsertib 32 nM", "value": 2, "unit": "µM"},
      {"measurement": "IC50", "setting": "camonsertib 100 nM", "value": 0.27, "unit": "µM"}
    ]}
  ]
}
